Results taken from the supplement of paper PMC10627819.

How the values were obtained:
Conditions in all cases: main component drawn
S. aureus Newman [1] = assay: fitness (endpoint OD595 vs no drug) (fraction); higher = more growth
In short: (§1)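 Volumes were 30 µl per well, or 55 µl for S. pneumoniae, in 384-well plates inoculated at OD595 0.01. Media were TSB, LB Lennox or CY at 37 °C, and OD595 was read every 30 min for 14 h with first-reading background subtraction. Fitness is the ratio of optical density at stationary-phase entry to the robust mean of no-drug controls. That ratio is capped at 1.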

B. subtilis 168 [2] = assay: as above
In short: as §1

S. aureus DSM 20231 = assay: Bliss interaction score (quartile over a dose matrix) (fitness difference); higher = more antagonism (negative = synergy)
In short: (§2)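 Growth was read as OD595 when cultures entered stationary phase, and each value was divided by the plate's robust no-drug mean and capped at 1. This normalised ratio is the fitness value, and fitness for each single drug came from the combination data. The Bliss score subtracts the expected fitness, taken as the product, from the observed fitness and is given as quartiles across technical, biological and donor/recipient replicates.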

S. aureus Newman [3] = assay: as above
In short: as §2

B. subtilis 168 [4] = assay: as above
In short: as §2

S. pneumoniae D39V = assay: as above
In short: as §2
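For Bliss interaction score (quartile over a dose matrix) in this document: first quartile when negative (synergy) and third quartile when positive (antagonism).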

CC[C@H](C)[C@H](N)C1=N[C@H](C(=O)N[C@@H](CC(C)C)C(=O)N[C@H](CCC(=O)O)C(=O)N[C@H](C(=O)N[C@H]2CCCCNC(=O)[C@H](CC(N)=O)NC(=O)[C@@H](CC(=O)O)NC(=O)[C@H](Cc3cnc[nH]3)NC(=O)[C@@H](Cc3ccccc3)NC(=O)[C@H]([C@@H](C)CC)NC(=O)[C@@H](CCCN)NC2=O)[C@@H](C)CC)CS1 [Bacitracin] + CN[C@@H]1[C@H](O)[C@H](NC)[C@H]2O[C@@]3(O)C(=O)C[C@@H](C)O[C@H]3O[C@@H]2[C@H]1O [Spectinomycin]
fitness
Conditions | partner 2 µg/mL | partner 4 µg/mL | partner 8 µg/mL | partner 16 µg/mL
B. subtilis 168 [2], first compound 37.5 µg/mL | 0.903 | 0.933 | 0.863 | –
B. subtilis 168 [2], first compound 75 µg/mL | 0.889 | 0.911 | 0.829 | –
S. aureus Newman [1], first compound 18.75 µg/mL | – | 0.652 | – | –
S. aureus Newman [1], first compound 75 µg/mL | – | 0.0188 | 0.0181 | 0

fitness, S. aureus Newman [1], one replicate
Conditions | first compound 18.75 µg/mL | first compound 37.5 µg/mL | first compound 75 µg/mL
partner 32 µg/mL | 0.0067 | 0.0186 | 0
partner 64 µg/mL | 0.0327 | 0.0167 | 0.003

Conditions | Bliss interaction score
B. subtilis 168 [4] | 0.0682
S. aureus DSM 20231 | 0.0546
S. aureus Newman [3] | -0.165
S. pneumoniae D39V | -0.186

CC[C@H](C)[C@H](N)C1=N[C@H](C(=O)N[C@@H](CC(C)C)C(=O)N[C@H](CCC(=O)O)C(=O)N[C@H](C(=O)N[C@H]2CCCCNC(=O)[C@H](CC(N)=O)NC(=O)[C@@H](CC(=O)O)NC(=O)[C@H](Cc3cnc[nH]3)NC(=O)[C@@H](Cc3ccccc3)NC(=O)[C@H]([C@@H](C)CC)NC(=O)[C@@H](CCCN)NC2=O)[C@@H](C)CC)CS1 [Bacitracin] + COc1c(N2C[C@@H]3CCCN[C@@H]3C2)c(F)cc2c(=O)c(C(=O)O)cn(C3CC3)c12 [Moxifloxacin]
fitness
Conditions | partner 0.0075 µg/mL | partner 0.015 µg/mL | partner 0.03 µg/mL | partner 0.0312 µg/mL | partner 0.0625 µg/mL | partner 0.125 µg/mL | partner 2 µg/mL | partner 4 µg/mL | partner 8 µg/mL
B. subtilis 168 [2], first compound 37.5 µg/mL | – | – | – | 0.0427 | 0.0342 | 0.0345 | 0.0202 | 0.0156 | 0.0081
B. subtilis 168 [2], first compound 75 µg/mL | – | – | – | 0.022 | 0.026 | 0.0158 | 0.0179 | 0.0161 | 0.009
B. subtilis 168 [2], first compound 150 µg/mL | – | – | – | 0.019 | 0.0046 | 0.0203 | 0.0204 | 0.0121 | 0.0111
S. aureus Newman [1], first compound 18.75 µg/mL | 0.614 | 0.482 | 0.0523 | – | – | – | – | – | –
S. aureus Newman [1], first compound 37.5 µg/mL | 0.133 | 0.0255 | 0.0043 | – | – | – | – | – | –
S. aureus Newman [1], first compound 75 µg/mL | 0.0091 | 0.0053 | 0.0025 | – | – | – | – | – | –

Conditions | Bliss interaction score
B. subtilis 168 [4] | -0.0316
S. aureus DSM 20231 | 0.0317
S. aureus Newman [3] | -0.078
S. pneumoniae D39V | 0.0806

CC[C@H](C)[C@H](N)C1=N[C@H](C(=O)N[C@@H](CC(C)C)C(=O)N[C@H](CCC(=O)O)C(=O)N[C@H](C(=O)N[C@H]2CCCCNC(=O)[C@H](CC(N)=O)NC(=O)[C@@H](CC(=O)O)NC(=O)[C@H](Cc3cnc[nH]3)NC(=O)[C@@H](Cc3ccccc3)NC(=O)[C@H]([C@@H](C)CC)NC(=O)[C@@H](CCCN)NC2=O)[C@@H](C)CC)CS1 [Bacitracin] + CN(C)c1cc(NC(=O)CNC(C)(C)C)c(O)c2c1C[C@H]1C[C@H]3[C@H](N(C)C)C(O)=C(C(N)=O)C(=O)[C@@]3(O)C(O)=C1C2=O [Tigecycline]
fitness
Conditions | partner 0.039 µg/mL | partner 0.078 µg/mL | partner 0.156 µg/mL
B. subtilis 168 [2], first compound 37.5 µg/mL | 0.997 | 0.946 | 0.867
B. subtilis 168 [2], first compound 75 µg/mL | ≥ 1 | 0.859 | 0.933
S. aureus Newman [1], first compound 18.75 µg/mL | 0.705 | 0.707 | 0.724
S. aureus Newman [1], first compound 75 µg/mL | 0.0511 | 0.058 | 0.0883

fitness, B. subtilis 168 [2], one replicate
Conditions | first compound 37.5 µg/mL | first compound 75 µg/mL | first compound 150 µg/mL
partner 0.125 µg/mL | ≥ 1 | ≥ 1 | ≥ 1
partner 0.25 µg/mL | 0.907 | 0.892 | 0.855
partner 0.5 µg/mL | 0.915 | 0.947 | 0.914

Conditions | Bliss interaction score
B. subtilis 168 [4] | 0.0848
S. aureus DSM 20231 | 0.0393
S. aureus Newman [3] | 0.0592
S. pneumoniae D39V | 0.0672
